Results on 14 compounds are retold here after patent US9890117B2, “Benzamide compounds and related methods of use” (Northwestern University, priority 2012, dated 2018).

Counter-ions that a name gives are not always drawn.

The assay deals with T1, SIRT2 (Homo sapiens, UniProt Q8IXJ6).
T1 construct: recombinant active enzymes SIRT1, SIRT2, and the catalytically active fragment of SIRT3
T1 sequence (Q8IXJ6 1-389): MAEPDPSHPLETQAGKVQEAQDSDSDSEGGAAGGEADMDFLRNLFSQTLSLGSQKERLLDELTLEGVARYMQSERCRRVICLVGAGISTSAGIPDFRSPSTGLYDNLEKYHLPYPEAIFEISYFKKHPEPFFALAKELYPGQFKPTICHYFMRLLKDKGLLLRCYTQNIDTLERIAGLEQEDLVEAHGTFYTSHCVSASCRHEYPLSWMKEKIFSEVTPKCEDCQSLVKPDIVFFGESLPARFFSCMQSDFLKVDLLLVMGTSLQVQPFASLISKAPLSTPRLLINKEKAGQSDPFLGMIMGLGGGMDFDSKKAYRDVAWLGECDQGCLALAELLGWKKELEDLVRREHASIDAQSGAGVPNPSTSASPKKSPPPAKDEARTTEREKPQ
The assay can be described thus: Fluor-de-Lys biochemical sirtuin deacetylation assay, SIRT2. As to conditions: 10 μM.

On to `N#Cc1ccc(NC(=O)c2cccc(CN(Cc3cc(F)cc(F)c3)C3CC3)c2)cc1` [Compound 225f, N-(4-cyanophenyl)-3-((cyclopropyl(3,5-difluorobenzyl)amino)methyl)benzamide hydrochloride], for which the inhibition at 10 µM stood at 64%. With `N#Cc1ccc(NC(=O)c2cccc(CN(Cc3ccc(C#N)nc3)C3CC3)c2)cc1` [Compound 225g, N-(4-cyanophenyl)-3-((((6-cyanopyridin-3-yl)methyl)(cyclopropyl)amino)-methyl)benzamide hydrochloride] the figure was 44%. As to `CC(C)(C)N(Cc1ccc(C#N)cc1)Cc1cccc(C(=O)Nc2ccc(C#N)cc2)c1` [Compound 225h, 3-((tert-butyl(4-cyanobenzyl)amino)methyl)-N-(4-cyanophenyl)benzamide hydrochloride], the inhibition at 10 µM is 28%. Next, `N#Cc1ccc(NC(=O)c2cccc(CN(Cc3ccc(Br)cc3)C3CC3)c2)cc1` [Compound 225l, 3-(((4-bromobenzyl)(cyclopropyl)amino)methyl)-N-(4-cyanophenyl)benzamide hydrochloride]: 37%; `N#Cc1ccc(NC(=O)c2cccc3c2CCN(Cc2ccc(F)c(F)c2)C3)cc1` [Compound 225m, N-(4-cyanophenyl)-2-(3,4-difluorobenzyl)-1,2,3,4-tetrahydroisoquinoline-5-carboxamide hydrochloride]: 65%; `CN(C(=O)c1cncc(CN(Cc2ccc(F)c(F)c2)C2CC2)c1)c1ccc(C#N)cc1` [Compound 225n, N-(4-cyanophenyl)-5-((cyclopropyl(3,4-difluorobenzyl)amino)methyl)-N-methylnicotinamide hydrochloride]: 0%. Next, `N#Cc1ccc(CN(Cc2cncc(C(=O)Nc3ccc(Cl)cc3)c2)C2CC2)cc1` [Compound 225o, N-(4-chlorophenyl)-5-(((4-cyanobenzyl)(cyclopropyl)amino)methyl)nicotinamide hydrochloride]: 8%; `CN(C(=O)c1cncc(CN(Cc2ccc(C#N)cc2)C2CC2)c1)c1ccc(Cl)cc1` [Compound 225p, N-(4-chlorophenyl)-5-(((4-cyanobenzyl)(cyclopropyl)amino)methyl)-N-methylnicotinamide hydrochloride]: 0%. For `N#Cc1ccc(NC(=O)c2cccc(CN3CCc4cc(Br)ccc4C3)c2)cc1` [Compound 225q, 3-((6-bromo-3,4-dihydroisoquinolin-2(1H)-yl)methyl)-N-(4-cyanophenyl)benzamide hydrochloride], the inhibition at 10 µM came to 80%. With `CC(=O)c1ccc(CN(Cc2cncc(C(=O)Nc3ccc(C#N)cc3)c2)C2CC2)cc1` [Compound 225r, 5-(((4-acetylbenzyl)(cyclopropyl)amino)methyl)-N-(4-cyanophenyl)nicotinamide hydrochloride] the figure was 10%.

`CC(=O)c1ccc(CN(Cc2cncc(C(=O)N(C)c3ccc(C#N)cc3)c2)C2CC2)cc1` [Compound 225s, 5-(((4-acetylbenzyl)(cyclopropyl)amino)methyl)-N-(4-cyanophenyl)-N-methylnicotinamide hydrochloride] yielded an inhibition at 10 µM of 3%.

For `O=C(Nc1ccc(Cl)cc1)c1cncc(CN(Cc2ccc(F)c(F)c2)C2CC2)c1` [Compound 225t, N-(4-chlorophenyl)-5-((cyclopropyl(3,4-difluorobenzyl)amino)methyl)nicotinamide hydrochloride], at 10 µM the inhibition was 9%.

As for `CC(=O)c1ccc(NC(=O)c2cncc(CN(Cc3ccc(F)c(F)c3)C3CC3)c2)cc1` [Compound 225u, N-(4-acetylphenyl)-5-((cyclopropyl(3,4-difluorobenzyl)amino)methyl)nicotinamide hydrochloride], the inhibition at 10 µM is 5%. `O=C(Nc1ccc(C(F)(F)F)cc1)c1cncc(CN(Cc2ccc(F)c(F)c2)C2CC2)c1` [Compound 225v, 5-((cyclopropyl(3,4-difluorobenzyl)amino)methyl)-N-(4-(trifluoromethyl)phenyl)-nicotinamide hydrochloride] had an inhibition at 10 µM of 3%.

The inhibition is how much of the control response was suppressed.
